According to publication PMC9447431 (Journal of chemical information and modeling, 2021):
Where two headings read alike, the source gives them in different places.

Assays:
Assay type in all cases: cell-based
OPRM [1] = biological target: T1, OPRM (Homo sapiens, UniProt P35372); assay: cell-based
OPRK [2] = biological target: T2, OPRK (Homo sapiens, UniProt P41145); assay: cell-based
OPRK [3] = biological target: T2, OPRK; assay: qHTS cAMP assay, agonist mode, HKOR cells
OPRD [4] = biological target: T3, OPRD (Homo sapiens, UniProt P41143); assay: qHTS cAMP assay, agonist mode, HDOR cells; details: CHO-K1 cells expressing human δ-OPR (HDOR)
T3 sequence (P41143 whole entry): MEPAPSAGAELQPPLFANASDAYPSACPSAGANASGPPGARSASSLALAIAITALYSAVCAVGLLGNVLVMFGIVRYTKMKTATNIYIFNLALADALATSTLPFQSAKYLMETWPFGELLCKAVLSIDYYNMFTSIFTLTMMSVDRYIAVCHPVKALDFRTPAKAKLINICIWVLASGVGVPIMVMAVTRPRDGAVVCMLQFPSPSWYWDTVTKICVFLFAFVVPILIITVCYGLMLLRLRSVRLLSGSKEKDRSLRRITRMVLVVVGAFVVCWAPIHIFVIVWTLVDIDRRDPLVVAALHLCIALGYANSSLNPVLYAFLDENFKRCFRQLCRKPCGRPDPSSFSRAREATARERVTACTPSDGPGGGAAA

OPRM [5] = biological target: T1, OPRM; assay: cell-based; remark: listed apart in the source
OPRD [6] = biological target: T3, OPRD; assay: qHTS cAMP assay, antagonist mode, HDOR cells
[7] = OPRK-agonist, CHO-K1 cells expressing human κ-OPR (HKOR), cAMP

T1 sequence (P35372 whole entry): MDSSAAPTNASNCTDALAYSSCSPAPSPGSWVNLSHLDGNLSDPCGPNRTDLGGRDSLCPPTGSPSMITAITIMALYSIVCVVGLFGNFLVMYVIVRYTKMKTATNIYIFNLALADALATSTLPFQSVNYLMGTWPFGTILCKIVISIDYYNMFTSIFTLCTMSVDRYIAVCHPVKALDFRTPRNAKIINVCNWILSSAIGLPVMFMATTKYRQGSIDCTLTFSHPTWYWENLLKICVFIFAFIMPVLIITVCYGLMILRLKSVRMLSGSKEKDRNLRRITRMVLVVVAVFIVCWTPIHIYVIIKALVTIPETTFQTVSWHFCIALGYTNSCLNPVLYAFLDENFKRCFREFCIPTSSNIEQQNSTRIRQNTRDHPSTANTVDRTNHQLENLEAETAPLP
T2 sequence (P41145 whole entry): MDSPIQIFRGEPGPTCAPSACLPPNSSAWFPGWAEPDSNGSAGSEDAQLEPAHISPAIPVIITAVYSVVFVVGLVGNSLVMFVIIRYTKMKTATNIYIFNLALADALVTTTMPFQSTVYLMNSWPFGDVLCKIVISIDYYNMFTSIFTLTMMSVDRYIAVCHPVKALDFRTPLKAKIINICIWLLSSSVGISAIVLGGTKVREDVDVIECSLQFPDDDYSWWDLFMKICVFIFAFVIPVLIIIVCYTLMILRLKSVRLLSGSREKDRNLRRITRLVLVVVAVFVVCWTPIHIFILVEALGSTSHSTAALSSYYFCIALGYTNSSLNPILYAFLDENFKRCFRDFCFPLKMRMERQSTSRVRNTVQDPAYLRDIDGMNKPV

`O=C(NCCN1CCC(n2c(=O)[nH]c3ccccc32)CC1)c1cc2cc(F)ccc2[nH]1` [NCGC00370807-05, FIPI] was tested, and the AC50 (OPRM [1]) was 580 nM.

`COc1ccc(NC(=O)Cn2c(=O)n(-c3ccc(CC(=O)NCC4CCCO4)cc3)c(=O)c3ccccc32)c(OC)c1` (centres unmarked) [NCGC00106344-01] showed an AC50 (OPRK [2]) of 2060 nM and an IC50 (OPRK [2]) of 2060 nM.

Work on `O=C(O)c1ccc(O)c2ncc(N3CCCN(CCc4cccc5ccccc45)CC3)cc12` [NCGC00247751-02] yielded an AC50 (OPRM [1]) of 650 nM.

For `CCC(=O)NCC(c1ccc2c(c1)OCO2)N1CCN(c2ccccc2)CC1` (centres unmarked) [NCGC00135974-01], the AC50 (OPRK [3]; [7]) was 1160 nM.

Work on `CCCN(CCC)S(=O)(=O)c1ccc(C(=O)Nc2sc3c(c2C(=O)OC)CCN(CC)C3)cc1` [NCGC00139128-01] yielded an AC50 (OPRD [4]) of 2060 nM.

For `COc1ccccc1N1CCN(Cc2cc(COC(C)C)c3cccnc3c2O)CC1` [NCGC00114968-02], the AC50 (OPRM [5]) was 650 nM.

Work on `Cc1cc(Cl)ccc1OCC(=O)N(Cc1ccc(N(C)C)cc1)CC1CCCO1` (centres unmarked) [NCGC00117293-01] yielded an AC50 (OPRK [3]; [7]) of 2500 nM.

For `O=C(NCCCc1nc2ccccc2n1Cc1ccccc1Cl)C1CCCCC1` [NCGC00114743-01], the AC50 (OPRM [1]) was 1640 nM.

For `CCn1c(=N)n(CCOc2ccc(Br)cc2)c2ccccc21` [NCGC00141762-01], the AC50 (OPRM [1]) was 2060 nM.

`CO[C@H]1C[C@@H]2CC[C@@H](C)[C@@](O)(O2)C(=O)C(=O)N2CCCC[C@H]2C(=O)O[C@H]([C@H](C)C[C@@H]2CC[C@@H](OP(C)(C)=O)[C@H](OC)C2)CC(=O)[C@H](C)/C=C(\C)[C@@H](O)[C@@H](OC)C(=O)[C@H](C)C[C@H](C)/C=C/C=C/C=C/1C` [NCGC00346481-02, Ridaforolimus] showed an AC50 (OPRK [3]) of 130 nM.

`O=C(CC(c1ccccc1)c1ccccc1)N1CCN(C(c2ccccc2)c2ccccc2)CC1` [NCGC00378879-01, NP-118809] was tested, and the AC50 (OPRM [1]) was 1830 nM.

With `Nc1ncnc2c1ncn2[C@@H]1O[C@@H]2COP(O)(=S)O[C@H]2[C@H]1O` (some centres unmarked) [NCGC00485585-01, Adenosine 3’,5’-cyclothiophosphate] the AC50 (OPRM [5]) was 60 nM, the IC50 (OPRM [5]) was 40 to 70 nM and the AC50 (OPRK [2]) was 70 nM. For the same compound, the IC50 (OPRK [2]) was 40 to 70 nM, the IC50 (OPRD [6]; OPRD, antagonist mode, range given for all three receptors) was 40 to 70 nM and the AC50 (OPRD [6]; OPRD-antagonist, HDOR cells, with 2nM dynorphin B) was 40 nM.

`Cc1cccc(OCC(=O)NCC2(N3CCN(C)CC3)CCCCC2)c1C` [NCGC00118605-01] was tested, and the AC50 (OPRM [1]) was 1830 nM.

For `O=C(Nc1ccccc1C(F)(F)F)N1CCC(CN2CCc3ccccc3C2)CC1` [NCGC00123899-01], the AC50 (OPRM [1]) was 920 nM.

`Nc1ncnc2c1nc(Cl)n2[C@@H]1O[C@@H]2COP(=O)(O)O[C@H]2[C@H]1O` [NCGC00485288-01, Tocladesine] was tested, and the AC50 (OPRM [5]) was 1030 nM, the AC50 (OPRK [2]) was 920 nM and the AC50 (OPRD [6]) was 460 nM.

With `Cc1cn(CCN2CCN(c3ccccc3-c3cc(C#N)cc(C(=O)NCCCN4CCCC4)c3)CC2)c2ccccc12` [NCGC00356417-05, LLY-507] the AC50 (OPRM [1]) was 130 nM.

`O=C(NCCCc1nc2ccccc2n1Cc1c(F)cccc1Cl)C1CCCCC1` [NCGC00114741-01] was tested, and the AC50 (OPRM [1]) was 520 nM.

Compound `COc1ccccc1N1CCN(CC[C@@](C)(C(=O)C2CCCCC2)c2ccccc2)CC1` [NCGC00386484-01, LY 426965] has an AC50 (OPRM [1]) of 180 nM.

Compound `CN1CCN(C2(CNC(=O)c3ccc(C(C)(C)C)cc3)CCCCC2)CC1` [NCGC00118549-01] has an AC50 (OPRM [1]) of 460 nM.

With `CCOC(=O)c1c(NC(=O)c2ccc(S(=O)(=O)N(C)C)cc2)sc2c1CCN(C)C2` [NCGC00136158-01] the AC50 (OPRD [4]) was 2310 nM.

For `Cc1cccc(-c2[nH]c(Cc3cccc(C(N)=O)c3)nc2-c2ccc3nccnc3c2)n1` [NCGC00386726-01, IN-1130], the AC50 (OPRK [2]) was 2060 nM and the IC50 (OPRK [2]) was 2060 nM.

Work on `N#CC(CCCN1CCC(O)(c2ccc(Cl)cc2)CC1)(c1ccccc1)c1ccccc1` [NCGC00378719-01, VUF-2274] yielded an AC50 (OPRM [1]) of 410 nM.

For `CCCC1=Nc2cc(C(=O)N3CCC(C)CC3)ccc2Sc2ccc(C)cc21` [NCGC00107633-01], the AC50 (OPRM [1]) was 920 nM.
